In US6525001B1, “Substituted pyrimidine and pyridine herbicides” (Mid-American Commercialization Corporation, priority 1997, dated 2003):

Experiments:
Assay in all cases: Test B pre-/postemergence
Assay type in all cases: in vivo
Set-up in all cases: key: 0 is no effect; 10 is complete control
[1] = test system: velvetleaf (Abutilon theophrasti)
In short: (§1)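 Scored visually 0 (none) to 10 (complete control) against untreated plants after twelve to sixteen greenhouse days. Test chemicals, formulated in surfactant-containing non-phytotoxic solvent, applied to soil after planting and, separately, onto 1- to 4-leaf (2–18 cm) plants.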

soybean (Glycine max) = test system: soybean (Glycine max)
In short: as §1

[2] = test system: giant foxtail (Setaria faberii)
In short: as §1

[3] = test system: pigweed (Amaranthus retroflexus)
In short: as §1

[4] = test system: crabgrass (Digitaria sanguinalis)
In short: as §1

[5] = test system: momingglory (Ipomoea hederacea)
In short: as §1

[6] = test system: wheat (Triticum aestivum)
In short: as §1

[7] = test system: cocklebur (Xanthium strumarium)
In short: as §1

rape (Brassica napus) = test system: rape (Brassica napus)
In short: as §1

[8] = test system: bedstraw (Galium aparine)
In short: as §1

corn (Zea mays) = test system: corn (Zea mays)
In short: as §1

[9] = test system: purple nutsedge (Cyperus rotundus)
In short: as §1

[10] = test system: broadleaf signalgrass (Brachiaria decumbens)
In short: as §1

[11] = test system: sugar beet (Beta vulgaris)
In short: as §1

Cc1cnc(-c2ccc(C(F)(F)F)cc2)nc1Cn1ccc(C(F)(F)F)n1 [compound 9] was tested, and the “Plant response rating, Velvetleaf” value ([1]; Rate 62 g/ha, Postemergence) was 10, the “Velvetleaf plant response rating” value ([1]; Rate 62 g/ha, Preemergence) was 7 and the “Plant response rating, Velvetleaf” value ([1]; Rate 125 g/ha, Postemergence) was 10. The “Velvetleaf plant response rating” value ([1]; Rate 125 g/ha, Preemergence) was 8, the “Plant response rating, Velvetleaf” value ([1]; Rate 250 g/ha, Postemergence) was 10 and the “Plant response rating, Velvetleaf” value ([1]; Rate 250 g/ha, Preemergence) was 9. The “Plant response rating, Velvetleaf” value ([1]; Rate 500 g/ha, Postemergence) was 9, the “Plant response rating, Velvetleaf” value ([1]; Rate 500 g/ha, Preemergence) was 9 and the “Plant response rating, Soybean” value (soybean (Glycine max); Rate 62 g/ha, Postemergence) was 8. For the same compound, the “Soybean plant response rating” value (soybean (Glycine max); Rate 62 g/ha, Preemergence) was 1, the “Plant response rating, Soybean” value (soybean (Glycine max); Rate 125 g/ha, Postemergence) was 9 and the “Soybean plant response rating” value (soybean (Glycine max); Rate 125 g/ha, Preemergence) was 1. The “Plant response rating, Soybean” value (soybean (Glycine max); Rate 250 g/ha, Postemergence) was 10, the “Plant response rating, Soybean” value (soybean (Glycine max); Rate 250 g/ha, Preemergence) was 2 and the “Plant response rating, Soybean” value (soybean (Glycine max); Rate 500 g/ha, Postemergence) was 9. For the same compound, the “Plant response rating, Soybean” value (soybean (Glycine max); Rate 500 g/ha, Preemergence) was 4, the “Plant response rating, Giant foxtail” value ([2]; Rate 62 g/ha, Postemergence) was 4 and the “Giant foxtail plant response rating” value ([2]; Rate 62 g/ha, Preemergence) was 10. For the same compound, the “Plant response rating, Giant foxtail” value ([2]; Rate 125 g/ha, Postemergence) was 5, the “Giant foxtail plant response rating” value ([2]; Rate 125 g/ha, Preemergence) was 10 and the “Plant response rating, Giant foxtail” value ([2]; Rate 250 g/ha, Postemergence) was 9. The “Plant response rating, Giant foxtail” value ([2]; Rate 250 g/ha, Preemergence) was 10, the “Plant response rating, Giant foxtail” value ([2]; Rate 500 g/ha, Postemergence) was 9 and the “Plant response rating, Giant foxtail” value ([2]; Rate 500 g/ha, Preemergence) was 10. The “Plant response rating, Redroot pigweed” value ([3]; Rate 62 g/ha, Postemergence) was 10, the “Redroot pigweed plant response rating” value ([3]; Rate 62 g/ha, Preemergence) was 9 and the “Plant response rating, Redroot pigweed” value ([3]; Rate 125 g/ha, Postemergence) was 10. For the same compound, the “Redroot pigweed plant response rating” value ([3]; Rate 125 g/ha, Preemergence) was 10, the “Plant response rating, Redroot pigweed” value ([3]; Rate 250 g/ha, Postemergence) was 10 and the “Plant response rating, Redroot pigweed” value ([3]; Rate 250 g/ha, Preemergence) was 10. The “Plant response rating, Redroot pigweed” value ([3]; Rate 500 g/ha, Postemergence) was 10, the “Plant response rating, Redroot pigweed” value ([3]; Rate 500 g/ha, Preemergence) was 10 and the “Plant response rating, Crabgrass” value ([4]; Rate 62 g/ha, Postemergence) was 9. The “Crabgrass plant response rating” value ([4]; Rate 62 g/ha, Preemergence) was 9, the “Plant response rating, Crabgrass” value ([4]; Rate 125 g/ha, Postemergence) was 9 and the “Crabgrass plant response rating” value ([4]; Rate 125 g/ha, Preemergence) was 10. For the same compound, the “Plant response rating, Crabgrass” value ([4]; Rate 250 g/ha, Postemergence) was 10, the “Plant response rating, Crabgrass” value ([4]; Rate 250 g/ha, Preemergence) was 10 and the “Plant response rating, Crabgrass” value ([4]; Rate 500 g/ha, Postemergence) was 10. The “Plant response rating, Crabgrass” value ([4]; Rate 500 g/ha, Preemergence) was 10, the “Plant response rating, Morningglory” value ([5]; Rate 62 g/ha, Postemergence) was 10 and the “Morningglory plant response rating” value ([5]; Rate 62 g/ha, Preemergence) was 8. For the same compound, the “Plant response rating, Morningglory” value ([5]; Rate 125 g/ha, Postemergence) was 10, the “Morningglory plant response rating” value ([5]; Rate 125 g/ha, Preemergence) was 10 and the “Plant response rating, Morningglory” value ([5]; Rate 250 g/ha, Postemergence) was 10. For the same compound, the “Plant response rating, Morningglory” value ([5]; Rate 250 g/ha, Preemergence) was 10, the “Plant response rating, Morningglory” value ([5]; Rate 500 g/ha, Postemergence) was 10 and the “Plant response rating, Morningglory” value ([5]; Rate 500 g/ha, Preemergence) was 10. The “Plant response rating, Wheat” value ([6]; Rate 62 g/ha, Postemergence) was 3, the “Wheat plant response rating” value ([6]; Rate 62 g/ha, Preemergence) was 1 and the “Plant response rating, Wheat” value ([6]; Rate 125 g/ha, Postemergence) was 3. For the same compound, the “Wheat plant response rating” value ([6]; Rate 125 g/ha, Preemergence) was 2, the “Plant response rating, Wheat” value ([6]; Rate 250 g/ha, Postemergence) was 4 and the “Plant response rating, Wheat” value ([6]; Rate 250 g/ha, Preemergence) was 5. The “Plant response rating, Wheat” value ([6]; Rate 500 g/ha, Postemergence) was 6, the “Plant response rating, Wheat” value ([6]; Rate 500 g/ha, Preemergence) was 6 and the “Plant response rating, Cocklebur” value ([7]; Rate 62 g/ha, Postemergence) was 9. For the same compound, the “Cocklebur plant response rating” value ([7]; Rate 62 g/ha, Preemergence) was 0, the “Plant response rating, Cocklebur” value ([7]; Rate 125 g/ha, Postemergence) was 9 and the “Cocklebur plant response rating” value ([7]; Rate 125 g/ha, Preemergence) was 2. For the same compound, the “Plant response rating, Cocklebur” value ([7]; Rate 250 g/ha, Postemergence) was 10, the “Plant response rating, Cocklebur” value ([7]; Rate 250 g/ha, Preemergence) was 9 and the “Plant response rating, Cocklebur” value ([7]; Rate 500 g/ha, Postemergence) was 9. The “Plant response rating, Cocklebur” value ([7]; Rate 500 g/ha, Preemergence) was 9, the “Plant response rating, Rape” value (rape (Brassica napus); Rate 62 g/ha, Postemergence) was 9 and the “Rape plant response rating” value (rape (Brassica napus); Rate 62 g/ha, Preemergence) was 9. For the same compound, the “Plant response rating, Rape” value (rape (Brassica napus); Rate 125 g/ha, Postemergence) was 10, the “Rape plant response rating” value (rape (Brassica napus); Rate 125 g/ha, Preemergence) was 9 and the “Plant response rating, Rape” value (rape (Brassica napus); Rate 250 g/ha, Postemergence) was 10. The “Plant response rating, Rape” value (rape (Brassica napus); Rate 250 g/ha, Preemergence) was 10, the “Plant response rating, Rape” value (rape (Brassica napus); Rate 500 g/ha, Postemergence) was 10 and the “Plant response rating, Rape” value (rape (Brassica napus); Rate 500 g/ha, Preemergence) was 10. The “Plant response rating, Bedstraw” value ([8]; Rate 62 g/ha, Postemergence) was 10, the “Bedstraw plant response rating” value ([8]; Rate 62 g/ha, Preemergence) was 4 and the “Plant response rating, Bedstraw” value ([8]; Rate 125 g/ha, Postemergence) was 10. The “Bedstraw plant response rating” value ([8]; Rate 125 g/ha, Preemergence) was 7, the “Plant response rating, Bedstraw” value ([8]; Rate 250 g/ha, Postemergence) was 10 and the “Plant response rating, Bedstraw” value ([8]; Rate 250 g/ha, Preemergence) was 10. The “Plant response rating, Bedstraw” value ([8]; Rate 500 g/ha, Postemergence) was 10, the “Plant response rating, Bedstraw” value ([8]; Rate 500 g/ha, Preemergence) was 9 and the “Plant response rating, Corn” value (corn (Zea mays); Rate 62 g/ha, Postemergence) was 3. For the same compound, the “Corn plant response rating” value (corn (Zea mays); Rate 62 g/ha, Preemergence) was 0, the “Plant response rating, Corn” value (corn (Zea mays); Rate 125 g/ha, Postemergence) was 4 and the “Corn plant response rating” value (corn (Zea mays); Rate 125 g/ha, Preemergence) was 1. For the same compound, the “Plant response rating, Corn” value (corn (Zea mays); Rate 250 g/ha, Postemergence) was 5, the “Plant response rating, Corn” value (corn (Zea mays); Rate 250 g/ha, Preemergence) was 3 and the “Plant response rating, Corn” value (corn (Zea mays); Rate 500 g/ha, Postemergence) was 5. The “Plant response rating, Corn” value (corn (Zea mays); Rate 500 g/ha, Preemergence) was 4, the “Plant response rating, Nutsedge” value ([9]; Rate 62 g/ha, Postemergence) was 0 and the “Nutsedge plant response rating” value ([9]; Rate 62 g/ha, Preemergence) was 0. For the same compound, the “Plant response rating, Nutsedge” value ([9]; Rate 125 g/ha, Postemergence) was 1, the “Nutsedge plant response rating” value ([9]; Rate 125 g/ha, Preemergence) was 0 and the “Plant response rating, Nutsedge” value ([9]; Rate 250 g/ha, Postemergence) was 3. The “Plant response rating, Nutsedge” value ([9]; Rate 250 g/ha, Preemergence) was 0, the “Plant response rating, Nutsedge” value ([9]; Rate 500 g/ha, Postemergence) was 3 and the “Plant response rating, Nutsedge” value ([9]; Rate 500 g/ha, Preemergence) was 0. The “Plant response rating, B. signalgrass” value ([10]; Rate 62 g/ha, Postemergence) was 5, the “B. signalgrass plant response rating” value ([10]; Rate 62 g/ha, Preemergence) was 8 and the “Plant response rating, B. signalgrass” value ([10]; Rate 125 g/ha, Postemergence) was 8. The “B. signalgrass plant response rating” value ([10]; Rate 125 g/ha, Preemergence) was 9, the “Plant response rating, B. signalgrass” value ([10]; Rate 250 g/ha, Postemergence) was 9 and the “Plant response rating, B. signalgrass” value ([10]; Rate 250 g/ha, Preemergence) was 10. For the same compound, the “Plant response rating, B. signalgrass” value ([10]; Rate 500 g/ha, Postemergence) was 9, the “Plant response rating, B. signalgrass” value ([10]; Rate 500 g/ha, Preemergence) was 10 and the “Plant response rating, Sugarbeets” value ([11]; Rate 62 g/ha, Postemergence) was 10. The “Sugarbeets plant response rating” value ([11]; Rate 62 g/ha, Preemergence) was 9, the “Plant response rating, Sugarbeets” value ([11]; Rate 125 g/ha, Postemergence) was 10 and the “Sugarbeets plant response rating” value ([11]; Rate 125 g/ha, Preemergence) was 10. For the same compound, the “Plant response rating, Sugarbeets” value ([11]; Rate 250 g/ha, Postemergence) was 10, the “Plant response rating, Sugarbeets” value ([11]; Rate 250 g/ha, Preemergence) was 10 and the “Plant response rating, Sugarbeets” value ([11]; Rate 500 g/ha, Postemergence) was 9. For the same compound, the “Plant response rating, Sugarbeets” value ([11]; Rate 500 g/ha, Preemergence) was 10.
